Assays:
PC3 cells = test: Transwell migration assay in PC3 prostate cancer cells; type: cell-based, human; settings: for effect on PC3 cell migration: compounds tested at 0.1 to 100 μM, compared with 14; for effect of chemotherapeutic drug on cell migration in PC3 cells: drug alone; for block of SAHA-stimulated cell migration in PC3 cells / block of docetaxel-stimulated cell migration in PC3 cells: second generation inhibitors at 20 μM, simultaneous treatment
Description: (§1) In vitro transwell migration assays were conducted as described previously (Caggia et al., “Novel Role of Gialpha2 in Cell Migration: Downstream of PI3-kinase-AKT and RacI in Prostate Cancer Cells,” J Cell Physiol, 234:802-815 (2018); Caggia et al., “Small Molecule Inhibitors Targeting Galphai2 Protein Attenuate Migration of Cancer Cells,” Cancers (Basel), 12(6):1631 (2020)). Briefly, the outside of the transwell inserts (BD Biosciences, San Jose, CA) were coated with 50 μl of rat tail collagen ([…]; BD Biosciences, San Jose, CA) overnight at 4° C. The next day, 50 μl of the aforementioned rat tail collagen were added for 1 hour at room temperature into the transwell inserts, to coat the inside of the membranes. DU145, PC3 and LNCaP cells were trypsinized and suspended at the appropriate density (3×10^5 cells/insert for DU145 and PC3, and 5×10^5 cells/insert for LNCaP) in MEM or RPMI containing 0.2% BSA (Sigma-Aldrich, St. Louis, MO). Chemoattractant solution, used as positive control, was made by diluting the epidermal growth factor (EGF) (10 ng/ml) into MEM (PC3 and DU145) or RPMI (LNCaP) supplemented with 0.2% BSA. Media containing 0.2% BSA served as a control. Control and EGF solutions ([…]) were added into the wells of a 24-well plate. Aliquots of 100 μl of cell suspensions, treated with or without the different compounds at several concentrations, were loaded into the transwell inserts and the plates were incubated at 37° C. for 5 hours (DU145 and PC3) or 24 hours (LNCaP). The cells inside the transwell inserts were removed by cotton swabs, and the cleaned inserts were fixed with 350 μl of 4% paraformaldehyde (pH 7.5) for 20 minutes at room temperature. Cells that had migrated to the outside of the transwell insert membrane were stained with 3 ng/ml of DAPI solution (Thermo Fisher Scientific, Eugene, OR) and images of five non-overlapping fields were captured using Axiovert 200M, Carl Zeiss (Thornwood, NY) microscope. The number of stained nuclei were determined with automatic counting using image analysis software (ZEN 2012; Carl Zeiss). Results were expressed as migration index defined as the average number of cells per field for test substance/the average number of cells per field for the medium control.
The effects of the newly synthesized compounds on the migratory behavior of PC3 cells were investigated in transwell migration assays as inventors have done before (Caggia et al., “Small Molecule Inhibitors Targeting Galphai2 Protein Attenuate Migration of Cancer Cells,” Cancers (Basel), 12(6):1631 (2020)). Compounds were tested at a concentration range of 0.1 to 100 μM. […] To potentially obtain insight into the disparity in their Gαi inhibition activities, molecular docking was performed on the enantiomers of 6 (6-R and 6-S) and 15 (15-R and 15-S). […] This slightly weaker binding affinity may partially explain the disproportionately weaker potency of 15 relative to 6. Other molecular factors, such as those which led to the attenuated potency observed with amino- to ether-group switch in the 7/10 pair, may contribute to the reduced potency of 15. Finally, most of these compounds have no effects on the morphology of PC3 cells or viability of several cancer cells at the concentrations as high as 100 μM.

LNCaP cells = test: Transwell migration assay in LNCaP prostate cancer cells; type: cell-based, human; settings: drug alone; for effect of chemotherapeutic drug on cell migration in LNCaP cells: several concentrations, 24 hours
Description: as §1
To determine the effects of HDACi on prostate cancer cell migration, migration assays were performed in androgen receptor (AR)-positive LNCaP cells using several concentrations of SAHA (0.1, 0.25, 0.5, 1, 2, 4 μM), a commercially available HDACi. […] Inventors have previously developed a very potent HDACi inhibitor (SBI-I-19), coupled with an anti-androgen, enzalutamide, which selectively targets androgen sensitive prostate cancer cells for its cytotoxic effects (Gryder et al., “Selectively Targeting Prostate Cancer with Antiandrogen Equipped Histone Deacetylase Inhibitors,” ACS Chem Biol, 8:2550-2560 (2013)). The possible effects of different concentrations of SBI-I-19 on cell migration in LNCaP cells were determined.

[1] = Stability in mouse liver microsomes; type: in vitro ADME
Description: (§2) On the strength of their potency, the stability of 6, 7 and 10 was determined in human and mouse plasma and liver microsomes.

[2] = Stability in human liver microsomes; type: in vitro ADME
Description: as §2

DU145 cells = test: Transwell migration assay in DU145 prostate cancer cells; type: cell-based, human; settings: drug alone
Description: In vitro transwell migration assays were conducted as described previously (Caggia et al., “Novel Role of Gialpha2 in Cell Migration: Downstream of PI3-kinase-AKT and RacI in Prostate Cancer Cells,” J Cell Physiol, 234:802-815 (2018); Caggia et al., “Small Molecule Inhibitors Targeting Galphai2 Protein Attenuate Migration of Cancer Cells,” Cancers (Basel), 12(6):1631 (2020)). Briefly, the outside of the transwell inserts (BD Biosciences, San Jose, CA) were coated with 50 μl of rat tail collagen ([…]; BD Biosciences, San Jose, CA) overnight at 4° C. The next day, 50 μl of the aforementioned rat tail collagen were added for 1 hour at room temperature into the transwell inserts, to coat the inside of the membranes. DU145, PC3 and LNCaP cells were trypsinized and suspended at the appropriate density (3×10^5 cells/insert for DU145 and PC3, and 5×10^5 cells/insert for LNCaP) in MEM or RPMI containing 0.2% BSA (Sigma-Aldrich, St. Louis, MO). Chemoattractant solution, used as positive control, was made by diluting the epidermal growth factor (EGF) (10 ng/ml) into MEM (PC3 and DU145) or RPMI (LNCaP) supplemented with 0.2% BSA. Media containing 0.2% BSA served as a control. Control and EGF solutions ([…]) were added into the wells of a 24-well plate. Aliquots of 100 μl of cell suspensions, treated with or without the different compounds at several concentrations, were loaded into the transwell inserts and the plates were incubated at 37° C. for 5 hours (DU145 and PC3) or 24 hours (LNCaP). […] The number of stained nuclei were determined with automatic counting using image analysis software (ZEN 2012; Carl Zeiss). Results were expressed as migration index defined as the average number of cells per field for test substance/the average number of cells per field for the medium control.
To determine whether the induction of cell migration by AR-antagonists and HDACi was limited to only AR-positive cells, the effects of anti-androgens and HDACi and docetaxel in AR-negative DU145 and PC3 cells were determined.

In the case of `CC(Oc1ccc([S+](C)[O-])cc1)c1cc2ccccc2n1C` (stereo not drawn) [Compound 13, 1-methyl-2-(1-(4-(methylsulfinyl)phenoxy)ethyl)-1H-indole], the “effect on PC3 cell migration” value (PC3 cells) is reported as “less effective, eliciting reduced anti-migration activities relative to the other compounds”.

In the case of `CC(O)(CS(=O)(=O)c1ccc(F)cc1)C(=O)Nc1ccc(C#N)c(C(F)(F)F)c1` (stereo not drawn) [bicalutamide], the “concentration of maximum induction of cell migration in LNCaP cells” value (LNCaP cells) is reported as 2.5 µM.

With `CC(=O)O[C@@]12CO[C@@H]1C[C@H](O)[C@@]1(C)C(=O)[C@H](O)C3=C(C)[C@@H](OC(=O)[C@H](O)[C@@H](NC(=O)OC(C)(C)C)c4ccccc4)C[C@@](O)([C@@H](OC(=O)c4ccccc4)[C@H]21)C3(C)C` [docetaxel, reference compound] the “effect of chemotherapeutic drug on cell migration in PC3 cells” value (PC3 cells) was “induced increase in cell migration”.

For `CC(Oc1ccc(O)cc1)c1cc2ccccc2n1C` (racemic) [Compound 15, 4-(1-(1-methyl-1H-indol-2-yl)ethoxy)phenol], the “effect on PC3 cell migration” value (PC3 cells) was “did not inhibit the migration of PC3 cells at the maximum concentration tested”.

With `CC(Nc1ccc(O)cc1)c1cc2ccccc2n1C` (racemic) [Compound 6, 4-((1-(1-methyl-1H-indol-2-yl)ethyl)amino)phenol] the “block of stimulatory effects of Docetaxel on PC3 cell migration” value (PC3 cells; FIG. 13, concentration not given) was “block the stimulatory effects of Docetaxel on PC3 cell migration”, the “effect on PC3 cell migration” value (PC3 cells) was “more effective relative to 14” and the “block of SAHA-stimulated cell migration in PC3 cells” value (PC3 cells) was “blocked the stimulatory effects of docetaxel and SAHA in PC3 cells”. The “block of docetaxel-stimulated cell migration in PC3 cells” value (PC3 cells) was “blocked the stimulatory effects of docetaxel and SAHA in PC3 cells”, the “stability in liver microsomes” value [1] was “robustly stable in both species” and the “stability in liver microsomes” value [2] was “robustly stable in both species”.

In the case of `CSc1ccc(NC(C)c2cc3ccccc3n2C)cc1` (racemic) [Compound 7, N-(1-(1-methyl-1H-indol-2-yl)ethyl)-4-(methylthio)aniline], the “block of stimulatory effects of EGF on PC3 cell migration” value (PC3 cells; EGF-stimulated) is reported as “blocks the stimulatory effects of EFG on PC3 cell migration”, the “effect on PC3 cell migration” value (PC3 cells) is reported as “more effective relative to 14” and the “block of SAHA-stimulated cell migration in PC3 cells” value (PC3 cells) is reported as “blocked the stimulatory effects of docetaxel and SAHA in PC3 cells”. The “block of docetaxel-stimulated cell migration in PC3 cells” value (PC3 cells) was “blocked the stimulatory effects of docetaxel and SAHA in PC3 cells”, the “stability in liver microsomes” value [1] was “only stable in the human microsome” and the “stability in liver microsomes” value [2] was “only stable in the human microsome”.

For `O=C(CCCCCCC(=O)Nc1ccccc1)NO` [SAHA], the “effect of chemotherapeutic drug on cell migration in PC3 cells” value (PC3 cells) was “induced increase in cell migration”, the “effect of chemotherapeutic drug on cell migration in LNCaP cells” value (“effect … in LNCaP cells” below) (LNCaP cells) was “significant dose-dependent increase in cell migration” and the “effect of chemotherapeutic drug on cell migration in DU145 cells” value (“effect … in DU145 cells” for short) (DU145 cells) was “increased cell migration”.

For `CSc1ccc(/N=C(\C)c2cc3ccccc3n2C)cc1` [Compound 4, (E)-1-(1-methyl-1H-indol-2-yl)-N-(4-(methylthio)phenyl)ethan-1-imine], the “effect on PC3 cell migration” value (PC3 cells) was “concentration dependent reduction of PC3 cell migration, but less efficiently relative to 14”.

With `CSc1ccc(OC(C)c2cc3ccccc3n2C)cc1` (stereo not drawn) [Compound 10, 1-methyl-2-(1-(4-(methylthio)phenoxy)ethyl)-1H-indole] the “effect on PC3 cell migration” value (PC3 cells) was “less potent compared to 7”, the “block of SAHA-stimulated cell migration in PC3 cells” value (PC3 cells) was “blocked the stimulatory effects of docetaxel and SAHA in PC3 cells” and the “block of docetaxel-stimulated cell migration in PC3 cells” value (PC3 cells) was “blocked the stimulatory effects of docetaxel and SAHA in PC3 cells”. For the same compound, the “stability in liver microsomes” value [1] was “only stable in the human microsome” and the “stability in liver microsomes” value [2] was “only stable in the human microsome”.

With `Cn1c(CNc2ccc(O)cc2)cc2ccccc21` [Compound 5, 4-(((1-methyl-1H-indol-2-yl)methyl)amino)phenol] the “effect on PC3 cell migration” value (PC3 cells) was “comparable potency”.

In the case of `Cn1c(/C=N/c2ccc(O)cc2)cc2ccccc21` [Compound 3, (E)-4-(((1-methyl-1H-indol-2-yl)methylene)amino)phenol], the “effect on PC3 cell migration” value (PC3 cells) is reported as “concentration dependent reduction of PC3 cell migration, but less efficiently relative to 14”.

In the case of `CNC(=O)c1ccc(N2C(=S)N(c3ccc(C#N)c(C(F)(F)F)c3)C(=O)C2(C)C)cc1F` [enzalutamide], the “concentration of maximum induction of cell migration in LNCaP cells” value (LNCaP cells) is reported as 2.5 µM, the “effect … in LNCaP cells” value (LNCaP cells) is reported as “dose-dependent increase in cell migration” and the “effect … in DU145 cells” value (DU145 cells) is reported as “increased cell migration”.

For `CC(Oc1ccc(S(C)(=O)=O)cc1)c1cc2ccccc2n1C` (racemic) [Compound 12, 1-methyl-2-(1-(4-(methylsulfonyl)phenoxy)ethyl)-1H-indole], the “effect on PC3 cell migration” value (PC3 cells) was “less effective, eliciting reduced anti-migration activities relative to the other compounds”.

For `CC1(C)C(=O)N(c2ccc(C#N)c(C(F)(F)F)c2)C(=O)N1Cc1ccc(-c2cn(CCCCC(=O)NO)nn2)cc1` [SBI-I-19], the “effect … in LNCaP cells” value (LNCaP cells) was “significant dose-dependent increase in cell migration” and the “effect … in DU145 cells” value (DU145 cells) was “increased cell migration”.

Source: US20250120948A1, “Small Molecules G(alpha)I2 Inhibitors and Combination With Anticancer Drugs and Use Thereof” (Georgia Tech Research Corporation, priority 2023, published 2025)
